{
  "source": "patent US11530200B2",
  "about": "“Compounds” (Inflazome Limited, priority 2018, dated 2022)",
  "note": "Counter-ions that a name gives are not always drawn.",
  "data": [
    {"target": "NLRP3 (Homo sapiens (Human), UniProt Q96P20)", "sequence (Q96P20 whole entry)": "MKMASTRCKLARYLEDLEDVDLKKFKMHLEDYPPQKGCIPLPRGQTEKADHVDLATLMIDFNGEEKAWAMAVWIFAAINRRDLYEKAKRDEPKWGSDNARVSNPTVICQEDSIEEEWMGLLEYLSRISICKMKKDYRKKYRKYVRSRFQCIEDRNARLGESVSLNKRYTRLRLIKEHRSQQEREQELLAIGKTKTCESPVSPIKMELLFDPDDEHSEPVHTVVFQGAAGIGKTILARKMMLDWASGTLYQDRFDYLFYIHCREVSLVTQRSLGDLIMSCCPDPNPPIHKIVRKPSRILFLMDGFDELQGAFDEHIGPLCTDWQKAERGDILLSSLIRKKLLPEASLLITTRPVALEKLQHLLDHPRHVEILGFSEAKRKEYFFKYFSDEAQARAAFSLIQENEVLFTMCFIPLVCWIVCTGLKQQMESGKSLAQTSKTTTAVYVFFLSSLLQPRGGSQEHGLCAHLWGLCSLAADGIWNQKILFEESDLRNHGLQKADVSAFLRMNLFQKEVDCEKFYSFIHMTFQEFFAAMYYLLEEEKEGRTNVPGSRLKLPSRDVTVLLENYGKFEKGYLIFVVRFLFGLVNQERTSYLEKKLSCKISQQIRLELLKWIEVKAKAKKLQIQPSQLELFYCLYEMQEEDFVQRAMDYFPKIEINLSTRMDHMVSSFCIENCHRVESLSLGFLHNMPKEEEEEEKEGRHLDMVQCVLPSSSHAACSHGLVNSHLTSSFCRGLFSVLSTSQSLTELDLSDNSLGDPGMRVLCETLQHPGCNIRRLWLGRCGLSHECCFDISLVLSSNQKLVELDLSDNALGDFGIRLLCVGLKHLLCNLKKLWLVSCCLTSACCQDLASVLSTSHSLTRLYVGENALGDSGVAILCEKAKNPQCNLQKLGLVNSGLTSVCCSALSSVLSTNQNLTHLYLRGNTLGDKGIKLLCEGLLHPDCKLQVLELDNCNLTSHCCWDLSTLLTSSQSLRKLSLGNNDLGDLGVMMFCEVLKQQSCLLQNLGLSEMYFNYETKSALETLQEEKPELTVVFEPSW", "assay": "THP-1 cells pyroptosis assay (LPS priming, nigericin, resazurin readout)", "type": "cell-based", "conditions": "1.0 μg/ml LPS, nigericin 5 μM, NLRP3 inhibitory activity", "procedure": "THP-1 cells (ATCC #TIB-202) were grown in RPMI containing L-glutamine (Gibco #11835) supplemented with 1 mM sodium pyruvate (Sigma #S8636) and penicillin (100 units/ml)/streptomycin (0.1 mg/ml) (Sigma #P4333) in 10% Fetal Bovine Serum (FBS) (Sigma #F0804). The cells were routinely passaged and grown to confluency (10^6 cells/ml). On the day of the experiment, THP-1 cells were harvested and resuspended into RPMI medium (without FBS). The cells were then counted and viability (>90%) checked by Trypan blue (Sigma #T8154). Appropriate dilutions were made to give a concentration of 625,000 cells/ml. To this diluted cell solution was added LPS (Sigma #L4524) to give a 1 μg/ml Final Assay Concentration (FAC). 40 μl of the final preparation was aliquoted into each well of a 96-well plate. The plate thus prepared was used for compound screening. The following method step-by-step assay was followed for compound screening. • 1. Seed THP-1 cells (25,000 cells/well) containing 1.0 μg/ml LPS in 40 μl of RPMI medium (without FBS) in 96-well, black walled, clear bottom cell culture plates coated with poly-D-lysine (VWR #734-0317) • 2. Add […] compound (8 points half-log dilution, with […] top dose) or vehicle (DMSO 0.1% FAC) to the appropriate wells • 3. Incubate for 3 hrs at 37° C., 5% CO2 • 4. Add 5 μl nigericin (Sigma #N7143) (FAC 5 μM) to all wells • 5. Incubate for 1 hr at 37° C., 5% CO2 • 6. At the end of the incubation period, spin plates at 300×g for 3 mins and remove supernatant • 7. Then add 50 μl of resazurin (Sigma #R7017) (FAC 100 μM resazurin in RPMI medium without FBS) and incubate plates for a further 1-2 hrs at 37° C. and 5% CO2 • 8. Plates were read in an Envision reader at Ex 560 nm and Em 590 nm • 9. IC50 data is fitted to a non-linear regression equation (log inhibitor vs response-variable slope 4-parameters) The results of the pyroptosis assay are summarised in Table 1 below as THP IC50.", "units": {"IC50": "µM"}, "values": [
      {"smiles": "N#Cc1cc(-c2ccc3c(c2CC(=O)NS(=O)(=O)c2ccn(C4CC4)n2)CCC3)ccn1", "note": "[Example 1, 2-(5-(2-Cyanopyridin-4-yl)-2,3-dihydro-1H-inden-4-yl)-N-((1-cyclopropyl-1H-pyrazol-3-yl)sulfonyl)acetamide]", "IC50": "1 to 5"},
      {"smiles": "CC(C)c1cc(F)cc(-c2ccncc2)c1CC(=O)NS(=O)(=O)c1ccn(C2CC2)n1", "note": "[Example 2, N-((1-Cyclopropyl-1H-pyrazol-3-yl)sulfonyl)-2-(4-fluoro-2-isopropyl-6-(pyridin-4-yl)phenyl)acetamide, potassium salt]", "IC50": "≤ 1"},
      {"smiles": "COc1cc(-c2cc(F)cc(C(C)C)c2CC(=O)NS(=O)(=O)c2cn(C3CC3)cn2)ccn1", "note": "[Example 3, N-((1-Cyclopropyl-1H-imidazol-4-yl)sulfonyl)-2-(4-fluoro-2-isopropyl-6-(2-methoxypyridin-4-yl)phenyl)acetamide]", "IC50": "1 to 5"},
      {"smiles": "COc1cc(-c2cc(F)cc(C(C)C)c2CC(=O)NS(=O)(=O)c2ccn(C3CC3)n2)ccn1", "note": "[Example 4, N-((1-Cyclopropyl-1H-pyrazol-3-yl)sulfonyl)-2-(4-fluoro-2-isopropyl-6-(2-methoxypyridin-4-yl)phenyl)acetamide]", "IC50": "1 to 5"},
      {"smiles": "COc1cc(-c2ccc3c(c2CC(=O)NS(=O)(=O)c2cnn(C4CC4)n2)CCC3)ccn1", "note": "[Example 5, N-((2-Cyclopropyl-2H-1,2,3-triazol-4-yl)sulfonyl)-2-(5-(2-methoxypyridin-4-yl)-2,3-dihydro-1H-inden-4-yl)acetamide]", "IC50": "5 to 10"},
      {"smiles": "CC(C)c1cc(F)cc(-c2cccnc2)c1CC(=O)NS(=O)(=O)c1cn(C2CC2)cn1", "note": "[Example 6, N-((1-Cyclopropyl-1H-imidazol-4-yl)sulfonyl)-2-(4-fluoro-2-isopropyl-6-(pyridin-3-yl)phenyl)acetamide]", "IC50": "5 to 10"},
      {"smiles": "CC(C)c1cc(F)cc(-c2ccnc(C#N)c2)c1CC(=O)NS(=O)(=O)c1cnn(C2CC2)n1", "note": "[Example 7, 2-(2-(2-Cyanopyridin-4-yl)-4-fluoro-6-isopropylphenyl)-N-((2-cyclopropyl-2H-1,2,3-triazol-4-yl)sulfonyl)acetamide]", "IC50": "5 to 10"},
      {"smiles": "N#Cc1cc(-c2ccc3c(c2CC(=O)NS(=O)(=O)c2cnn(C4CC4)n2)CCC3)ccn1", "note": "[Example 8, 2-(5-(2-Cyanopyridin-4-yl)-2,3-dihydro-1H-inden-4-yl)-N-((2-cyclopropyl-2H-1,2,3-triazol-4-yl)sulfonyl)acetamide]", "IC50": "1 to 5"},
      {"smiles": "CC(C)c1cc(F)cc(-c2ccnc(C#N)c2)c1CC(=O)NS(=O)(=O)c1cnn(C2CC2)c1", "note": "[Example 9, 2-(2-(2-Cyanopyridin-4-yl)-4-fluoro-6-isopropylphenyl)-N-((1-cyclopropyl-1H-pyrazol-4-yl)sulfonyl)acetamide]", "IC50": "5 to 10"},
      {"smiles": "COc1cc(-c2cc(F)cc(C(C)C)c2C(O)C(=O)NS(=O)(=O)c2cnn(C3CC3)c2)ccn1", "note": "(stereo not drawn) [Example 10, N-((1-Cyclopropyl-1H-pyrazol-4-yl)sulfonyl)-2-(4-fluoro-2-isopropyl-6-(2-methoxypyridin-4-yl)phenyl)-2-hydroxyacetamide]", "IC50": "5 to 10"},
      {"smiles": "COC1(c2cc(S(=O)(=O)NC(=O)Cc3c4c(cc5c3CCC5)CCC4)nn2C(C)C)COC1", "note": "[Example 12, 2-(1,2,3,5,6,7-Hexahydro-s-indacen-4-yl)-N-((1-isopropyl-5-(3-methoxyoxetan-3-yl)-1H-pyrazol-3-yl)sulfonyl)acetamide]", "IC50": "1 to 5"},
      {"smiles": "COC1(c2cc(S(=O)(=O)NC(=O)Cc3c(-c4ccnc(C#N)c4)ccc4c3CCC4)nn2C(C)C)COC1", "note": "[Example 13, 2-(5-(2-Cyanopyridin-4-yl)-2,3-dihydro-1H-inden-4-yl)-N-((1-isopropyl-5-(3-methoxyoxetan-3-yl)-1H-pyrazol-3-yl)sulfonyl)acetamide, potassium salt]", "IC50": "5 to 10"},
      {"smiles": "COC1(c2cc(S(=O)(=O)NC(=O)Cc3c4c(cc5c3CCC5)CCC4)nn2C2CC2)COC1", "note": "[Example 14, N-((1-Cyclopropyl-5-(3-methoxyoxetan-3-yl)-1H-pyrazol-3-yl)sulfonyl)-2-(1,2,3,5,6,7-hexahydro-s-indacen-4-yl)acetamide]", "IC50": "1 to 5"},
      {"smiles": "CC(c1cc(S(=O)(=O)NC(=O)Cc2c3c(cc4c2CCC4)CCC3)nn1C1CC1)N(C)C", "note": "(stereo not drawn) [Example 15, N-((1-Cyclopropyl-5-(1-(dimethylamino)ethyl)-1H-pyrazol-3-yl)sulfonyl)-2-(1,2,3,5,6,7-hexahydro-s-indacen-4-yl)acetamide]", "IC50": "1 to 5"},
      {"smiles": "CC(C)c1cc(F)cc(C(C)C)c1CC(=O)NS(=O)(=O)c1cc(CN(C)C)n(C2CC2)n1", "note": "[Example 16, N-((1-Cyclopropyl-5-((dimethylamino)methyl)-1H-pyrazol-3-yl)sulfonyl)-2-(4-fluoro-2,6-diisopropylphenyl)acetamide]", "IC50": "1 to 5"},
      {"smiles": "COc1cc(-c2ccc3c(c2CC(=O)NS(=O)(=O)c2ccn(C4CC4)n2)CCC3)ccn1", "note": "[Example 17, N-((1-Cyclopropyl-1H-pyrazol-3-yl)sulfonyl)-2-(5-(2-methoxypyridin-4-yl)-2,3-dihydro-1H-inden-4-yl)acetamide]", "IC50": "1 to 5"},
      {"smiles": "O=C(Cc1c2c(cc3c1CCC3)CCC2)NS(=O)(=O)c1ccn(C2CC2)n1", "note": "[Example 19, N-((1-Cyclopropyl-1H-pyrazol-3-yl)sulfonyl)-2-(1,2,3,5,6,7-hexahydro-s-indacen-4-yl)acetamide]", "IC50": "5 to 10"},
      {"smiles": "COc1cc(-c2cc(F)cc(C(C)C)c2CC(=O)NS(=O)(=O)c2cnn(C3CC3)n2)ccn1", "note": "[Example 20, N-((2-Cyclopropyl-2H-1,2,3-triazol-4-yl)sulfonyl)-2-(4-fluoro-2-isopropyl-6-(2-methoxypyridin-4-yl)phenyl)acetamide]", "IC50": "1 to 5"},
      {"smiles": "CC(C)c1cc(F)cc(-c2cccnc2)c1CC(=O)NS(=O)(=O)c1ncn(C2CC2)n1", "note": "[Example 22, N-((1-Cyclopropyl-1H-1,2,4-triazol-3-yl)sulfonyl)-2-(4-fluoro-2-isopropyl-6-(pyridin-3-yl)phenyl)acetamide]", "IC50": "1 to 5"},
      {"smiles": "COc1cc(-c2ccc3c(c2CC(=O)NS(=O)(=O)c2cnn(C4CC4)c2)CCC3)ccn1", "note": "[Example 23, N-((1-Cyclopropyl-H-pyrazol-4-yl)sulfonyl)-2-(5-(2-methoxypyridin-4-yl)-2,3-dihydro-1H-inden-4-yl)acetamide]", "IC50": "1 to 5"},
      {"smiles": "CC(C)c1cc(F)cc(C(C)C)c1CC(=O)NS(=O)(=O)c1ncn(C2CC2)n1", "note": "[Example 25, N-((1-Cyclopropyl-H-1,2,4-triazol-3-yl)sulfonyl)-2-(4-fluoro-2,6-diisopropylphenyl)acetamide]", "IC50": "5 to 10"},
      {"smiles": "CC(C)c1cc(F)cc(C(C)C)c1CC(=O)NS(=O)(=O)c1cnn(C2CC2)n1", "note": "[Example 26, N-((2-Cyclopropyl-2H-1,2,3-triazol-4-yl)sulfonyl)-2-(4-fluoro-2,6-diisopropylphenyl)acetamide]", "IC50": "1 to 5"},
      {"smiles": "CC(C)c1cc(F)cc(-c2cccnc2)c1CC(=O)NS(=O)(=O)c1cnn(C2CC2)n1", "note": "[Example 27, N-((2-Cyclopropyl-2H-1,2,3-triazol-4-yl)sulfonyl)-2-(4-fluoro-2-isopropyl-6-(pyridin-3-yl)phenyl)acetamide]", "IC50": "1 to 5"},
      {"smiles": "CC(C)c1cc(F)cc(C(C)C)c1CC(=O)NS(=O)(=O)c1cn(C2CC2)cn1", "note": "[Example 28, N-((1-Cyclopropyl-1H-imidazol-4-yl)sulfonyl)-2-(4-fluoro-2,6-diisopropylphenyl)acetamide]", "IC50": "1 to 5"},
      {"smiles": "COC1(c2cc(S(=O)(=O)NC(=O)Cc3c(C(C)C)cc(F)cc3C(C)C)nn2C(C)C)COC1", "note": "[Example 29, 2-(4-Fluoro-2,6-diisopropylphenyl)-N-((1-isopropyl-5-(3-methoxyoxetan-3-yl)-1H-pyrazol-3-yl)sulfonyl)acetamide]", "IC50": "1 to 5"},
      {"smiles": "N#Cc1cc(-c2ccc3c(c2CC(=O)NS(=O)(=O)c2cnn(C4CC4)c2)CCC3)ccn1", "note": "[Example 30, 2-(5-(2-Cyanopyridin-4-yl)-2,3-dihydro-H-inden-4-yl)-N-((1-cyclopropyl-1H-pyrazol-4-yl)sulfonyl)acetamide]", "IC50": "5 to 10"},
      {"smiles": "CC(C)c1cc(F)cc(-c2ccnc(C#N)c2)c1CC(=O)NS(=O)(=O)c1cn(C2CC2)cn1", "note": "[Example 31, 2-(2-(2-Cyanopyridin-4-yl)-4-fluoro-6-isopropylphenyl)-N-((1-cyclopropyl-1H-imidazol-4-yl)sulfonyl)acetamide]", "IC50": "5 to 10"}
    ]}
  ]
}
